From a melting point compilation (Tetko et al.; mined from patent text by program, amines drawn as free bases though some values may be those of a salt)

Work on `Cc1ccc2c(c1)C1CN(CCO)CCC1N2` (stereo unspecified) yielded a melting point of 182 to 185 °C.
Work on `N#Cc1c2c(n(Cc3ccccc3)c1N)CCCC2` yielded a melting point of 128 to 130 °C.
Work on `COc1ccc(CNc2nnc(NCCCO)c3ccc(C#N)cc23)cc1Cl` yielded a melting point of 132 to 135 °C.
`CON=C(Nc1nc(OC)nc(OC)n1)NS(=O)(=O)c1ccccc1S(=O)(=O)OC` gave a melting point of 148 to 150 °C.
In the case of `O=C(O)C(=O)c1c(F)cc(OCCOc2ccc3ccccc3c2)cc1F`, the melting point is reported as 157 to 158 °C.
In the case of `Cc1[nH]c(-c2ccccc2)nc1C=O`, the melting point is reported as 102 to 115 °C.
`Cc1ccc2ccc(=O)oc2c1C` showed a melting point of 122 to 123 °C.
In the case of `CCOC(=O)c1ncn2c1CN(C)C(=O)c1cc([N+](=O)[O-])ccc1-2`, the melting point is reported as 197 to 199 °C.
Molecule `N#Cc1ccc(C2C(=O)N(Cc3ccc(F)cc3)Cc3cncn32)cc1` (stereo unspecified) has a melting point of 132 to 135 °C.
In the case of `CNC(=O)N(OC)c1ccc(Oc2ccc3sncc3c2)c(C(F)(F)F)c1`, the melting point is reported as 197 °C.
`CCCc1c(CSc2nnc(SCCCCCCC(=O)O)s2)ccc(C(C)=O)c1O` gave a melting point of 63 to 68 °C.
With `COP(=O)(Cc1cc(CP(=O)(OC)OC)cc(CP(=O)(OC)OC)c1)OC` the melting point was 106 °C.
With `CC(C)(C)c1cc(C(=O)O)ccc1OCc1ccccc1` the melting point was 213 to 214 °C.
`Nc1ccccc1Cn1[nH]c2ccccc2c1=O` gave a melting point of 204 to 205 °C.
Work on `O=Cc1ccc(/C=C/c2ccncc2)nc1` yielded a melting point of 131 to 136 °C.
`O=C1NC(=O)C(Cc2ccc(OCCON=Cc3ccccn3)cc2)S1` (stereo unspecified) showed a melting point of 161 to 163 °C.
Molecule `Cc1oc(-c2ccc(C(F)(F)F)cc2)nc1COc1ccc(S(=O)(=O)Cl)cc1` has a melting point of 90 to 93 °C.
With `Cc1cccc2ncc(C(=O)NC3CCCC3)c(=O)n12` the melting point was 158 to 160 °C.
With `CCCCCCCCCCOc1cc(OCCCCCCCCCC)cc(N(CC(=O)O)CC(=O)O)c1` the melting point was 110 to 114 °C.
`CSc1nnc(C(C)(C)C)[nH]1` showed a melting point of 191 to 194 °C.
In the case of `COc1ccc(-c2cc(C(=O)O)c(=O)n(CC3CCCC3)n2)cc1F`, the melting point is reported as 159 to 161 °C.
With `CCN1C(c2ccccc2C(=O)c2ccccc2)=N[C@@H]2CCCC[C@H]21` (relative stereo) the melting point was 80 to 83 °C.
`C=C1SC(=S)N(c2cccc3c(-c4ccc(OC)c(C56CC7CC(CC(C7)C5)C6)c4)cccc23)C1=O` showed a melting point of 322 to 324 °C.
With `Clc1cc(Cl)cc(C2=NOCCS2)c1` the melting point was 88 to 89 °C.
Work on `CCOC(=O)c1nc(C)n2c1CN=C(c1ccccc1Cl)c1cc(Cl)ccc1-2` yielded a melting point of 214 to 215 °C.
With `Cc1noc(NS(=O)(=O)c2cccc3nsnc23)c1Br` the melting point was 177 to 179 °C.
Work on `Cn1cc(Nc2ccc([N+](=O)[O-])cc2[N+](=O)[O-])cn1` yielded a melting point of 149 °C.
In the case of `CCOC(=O)C1(NS(=O)(=O)c2ccc3c(Cl)cnc(Cl)c3c2)CCC1`, the melting point is reported as 123 to 125 °C.
For `FC(F)(F)COc1cccc(-c2ccc3nnn(Cc4ccc5ncccc5c4)c3n2)c1`, the melting point was 151 to 154 °C.
With `CCN(CC)C1CCN(c2ccc(C(C)=O)cc2)CC1` the melting point was 125 to 127 °C.
Work on `CC(C)NC(=S)Nc1cccc(NC(=O)Nc2ccc(Cl)cc2)c1` yielded a melting point of 197 to 198 °C.
`CCN1CC(=O)N(C(C)c2ccc(F)cc2)C1=S` (stereo unspecified) gave a melting point of 93 to 95 °C.
In the case of `O=C(NCc1ccc(C(F)(F)F)cc1)c1cnc(Cl)nc1N1CCCC1`, the melting point is reported as 170 to 171 °C.
In the case of `Cc1c(C(=O)Nc2ccc(N3CCC(N4CCOCC4)CC3)c(C(N)=O)c2)cnn1-c1ccc(Cl)cc1`, the melting point is reported as 270 °C.
With `CCN(CC)C(=O)COC(=O)CCc1cc(S(C)(=O)=O)cc(-c2nc(=O)c3ccc(Cl)cc3s2)n1` the melting point was 179 to 180 °C.
`Cn1cnc2nc(-c3ccc(-c4ccccc4)cc3)nn2c1=S` gave a melting point of 297 to 299 °C.
In the case of `CC(C)OC(=Cn1cnnn1)c1ccc(Cl)cc1Cl`, the melting point is reported as 82 °C.
`C[C@@H](O)Cn1ncc2ccc(O)c(Br)c21` gave a melting point of 134 to 136 °C.
`CS(=O)(=O)N1CCCn2c(nc3c(N)nc4c(c32)CCCC4)C1` gave a melting point of 270 to 272 °C.
`CCOC1CC2(C)C(CCC3C4CC5OC5C4(C)CC(N(C)C)C32)CC1O` (stereo unspecified) gave a melting point of 149 to 151 °C.
`CCOC(=O)C(=CNc1cscc1OC)C(=O)OCC` showed a melting point of 100 to 102 °C.
With `O=C1N[C@H](Cc2ccc(C(F)(F)F)cc2)[C@H](c2cccc(F)c2)O1` (racemic) the melting point was 143 to 144 °C.
`O=C(O)C1(CCCCCCCCCCCCC2(C(=O)NCCO)CC2)CC1` showed a melting point of 81.1 to 83.8 °C.
For `O=C(O)c1ccc(N2C(=O)C(=Cc3ccccc3)SC2=S)cc1`, the melting point was 298 to 301 °C.
For `OC(c1ccc(F)cc1)(c1ccc(F)cc1)C1CCN(Cc2ccccc2)C1` (stereo unspecified), the melting point was 99 to 100 °C.
Molecule `CN(C(=O)c1ccccc1N(CC(=O)N1CCCC(C)(C)C1)C(=O)CN1C(=O)c2ccccc2C1=O)c1ccccc1` has a melting point of 180 °C.
In the case of `CNC(=O)[C@@H]1C=CCN1S(=O)(=O)c1ccc(Cl)c(CBr)c1Cl`, the melting point is reported as 66 °C.
Work on `O=C1CN(Cc2ccc(COc3cccc4c3CN(C3CCC(=O)NC3=O)C4=O)cc2)CCN1` (stereo unspecified) yielded a melting point of 245 to 247 °C.
For `CS(=O)(=O)Oc1ccc([C@@H]2CCNC(=O)[C@H]2c2ccccc2)cc1` (relative stereo), the melting point was 199 °C.
`CCCCCCCN(CCCCCSc1nc2cc(C)ccc2[nH]1)C(=O)Nc1ccc(F)cc1F` gave a melting point of 70 to 72 °C.
`C/C(=C\CO)c1ccc(OCc2nc(-c3ccccc3)oc2C)cc1` showed a melting point of 126 to 127 °C.
Work on `CCC(=O)Oc1cc(-c2nc3cc(F)ccc3s2)ccc1OC` yielded a melting point of 150 °C.
With `CCN(CC)C(=O)Oc1cc(-c2ccccn2)nc2ccccc12` the melting point was 100 °C.
Molecule `CCCCCSc1cc(C(C)(C)C)c(O)c(C(C)(C)C)c1` has a melting point of 54 to 55 °C.
In the case of `CCCCc1ccc(C(O)=S)nc1`, the melting point is reported as 99 °C.
In the case of `CS(=O)(=O)c1ccc(-n2nc(C(F)(F)F)cc2-c2ccc(-c3ccsc3)cc2)cc1`, the melting point is reported as 154 to 155 °C.
Molecule `COC(=O)c1cccc(-c2nc(-c3ccc(F)cc3F)cs2)c1` has a melting point of 121 to 122 °C.
Molecule `CS(=O)(=O)c1ccc(-c2nc(C(F)(F)F)nc(NN)c2-c2ccc(S(=O)(=O)NN)cc2)cc1` has a melting point of 203 to 206 °C.
`NC(=O)c1ccc(-c2ccc3nnn(Cc4cc5cccnc5cc4F)c3n2)cc1F` showed a melting point of 206 to 208 °C.
Molecule `COc1ccc(N)c(OC)c1-c1ccc(C[C@H](NC(=O)c2c(Cl)cccc2Cl)C(=O)O)cc1` has a melting point of 231 to 232 °C.
Work on `O=C1C(c2ccccc2)c2cccc3c2N1CCN3` (stereo unspecified) yielded a melting point of 168 to 171 °C.
`CC(Cc1ccc(OCCCO)cc1)NCC(O)c1cccc(C(F)(F)F)c1` (stereo unspecified) gave a melting point of 97 to 103 °C.
`O=C(O)CCC(=O)c1cc2c(s1)CCc1ccccc1C2=O` gave a melting point of 167 to 168 °C.
`CCOCOC(CCC(C(=O)NC)C(C)C(O)c1ccccc1)c1ccc(F)cc1` (stereo unspecified) showed a melting point of 91 to 92 °C.
For `CCC1=Cc2cc3c(cc2C(c2ccc(N)cc2)=NN1C(C)=O)OCO3`, the melting point was 136 to 138 °C.
With `COc1ccc2c(c1OC)CCC1CNC(=O)C21` (stereo unspecified) the melting point was 185 to 187 °C.
In the case of `Cc1ccc(S(=O)(=O)n2cc(I)nc2C)cc1`, the melting point is reported as 112 to 114 °C.
In the case of `C=CCNCCC(OC)(c1ccccc1)c1ccccc1`, the melting point is reported as 40 to 50 °C.
In the case of `O=C1c2cc(OCc3ccccc3)ccc2OCCC1Oc1ccccc1` (stereo unspecified), the melting point is reported as 112 to 114 °C.
For `O=C1NCCc2[nH]c3ccc(F)cc3c21`, the melting point was 242 to 245 °C.
Work on `CC(C)c1cccc(C(C)C)c1NC(=O)Nc1nnn(Cc2ccccc2)n1` yielded a melting point of 180 to 181 °C.
In the case of `COc1ccsc1S(=O)(=O)Nc1nc2c(OC)cnc(OC)n2n1`, the melting point is reported as 227 to 228 °C.
Work on `CC1CCc2c(cc(-c3ccccc3)n2-c2ccc(O)c(C(=O)O)c2)C1` (stereo unspecified) yielded a melting point of 213 to 215 °C.
Molecule `OC1CSC(Oc2cc(-c3ccncc3)ccc2Cl)C(O)C1O` (stereo unspecified) has a melting point of 189 °C.
`C=CC(=O)OC12Oc3cc(C(C)C)ccc3C1(O)C(=O)c1ccccc12` (stereo unspecified) gave a melting point of 95 to 97 °C.
`Cc1cc(-c2coc3c(-c4ccc(F)cc4)c(-c4ccc(S(C)(=O)=O)cc4)nn23)ccc1Cl` gave a melting point of 202 to 205 °C.
With `CCCn1c(=O)n(CC(C)=O)c(=O)c2[nH]c(C34CC5CC(CC3C5)C4)nc21` the melting point was 181 to 184 °C.
`COc1cc2c(Nc3ccc(Sc4nccn4C)c(Cl)c3)c(C#N)cnc2cc1F` gave a melting point of 295 to 297 °C.
In the case of `Cc1n[nH]c2c1C(=O)CC(c1ccccc1Cl)C2` (stereo unspecified), the melting point is reported as 168 to 170 °C.
For `O=C(c1cc2cc(OCc3ccccc3)ccc2[nH]1)C1(c2ccc(Cl)cc2)CCCC1`, the melting point was 134 to 136 °C.
Molecule `CNC(=O)CCC(=O)c1c(O)cccc1OC` has a melting point of 125 °C.
Work on `COc1cc(NC(=S)Nc2ccccc2)ccc1NNC=O` yielded a melting point of 183 to 184 °C.
`NNC(=O)OCC1c2ccccc2-c2ccccc21` showed a melting point of 150 to 153 °C.
`COc1c(C)c(N2CCN(c3ccc(F)cc3)CC2)c(C)c2c1OC(C)(C)C2` showed a melting point of 137 to 139 °C.
With `Cn1ncnc1COc1nn2c(-c3cccc(F)c3)nncc2c1-c1ccccc1F` the melting point was 169 to 170 °C.
Work on `Cc1cc(-c2ccc(O)nc2)cc(C=O)c1N` yielded a melting point of 231 to 234 °C.
In the case of `CCCn1c(C)nc(N2CCc3ccccc3CC2)c([N+](=O)[O-])c1=O`, the melting point is reported as 164 to 170 °C.
`O=C(O)CC(NS(=O)(=O)c1ccc2ccccc2c1)c1ccc2c(c1)OCO2` (stereo unspecified) showed a melting point of 173 to 175 °C.
`Cc1[nH]c(=S)n(Nc2cccc(Cl)c2)c1C(=O)O` showed a melting point of 166 to 168 °C.
Work on `CCCCc1nc2c(C)cnc(C(=O)O)c2n1Cc1ccc(-c2ccccc2-c2nnn[nH]2)cc1` yielded a melting point of 159 to 161 °C.
For `Cc1c(C)c2c(c(C)c1NC(=O)NCCN(C)C)C(c1ccc(C(C)C)cc1)CO2` (stereo unspecified), the melting point was 133 to 134 °C.
With `Brc1ccc2ccn(Cc3ccccc3)c2c1` the melting point was 85 to 88 °C.
Molecule `CCN1CCNC(=O)c2ccc(Nc3ncc(Cl)c(Nc4ccccc4C(=O)NC)n3)cc21` has a melting point of 168 to 171 °C.
`COc1ccc(NC(=O)NCc2ccc(-n3c(-c4cccnc4N)nc4cccnc43)cc2)cc1` gave a melting point of 224 to 226 °C.
In the case of `O=C(c1ccc(Br)cc1Cl)c1cccc2c1Nc1ncccc1CN2`, the melting point is reported as 165 to 168 °C.
`Cc1c(Br)cnc(NC(=O)C2CC2)c1[N+](=O)[O-]` gave a melting point of 205 °C.
`CCCN(c1ccncc1)N1C(=O)C2(CCN(C)CC2)c2ccccc21` gave a melting point of 125 to 127 °C.
Work on `COC(=O)c1cc2cc(C3OCCO3)ccc2[nH]1` yielded a melting point of 71 to 72 °C.
For `CNc1cc(Cl)cc(C)n1`, the melting point was 69 to 70 °C.
For `CCCCCCC/C=C\CCCCCCCC(O)CCCNC(C)=O` (stereo unspecified), the melting point was 50 to 52 °C.
For `N=C(Nc1cccc(Cl)c1)Nc1nc(-c2ccccc2)cs1`, the melting point was 134 to 135 °C.
